# Measurements as given in publication PMC6017290, “Oleanolic Acid-amino Acids Derivatives: Design, Synthesis, and Hepatoprotective Evaluation In Vitro and In Vivo” (Molecules : A Journal of Synthetic Chemistry and Natural …, 2018).
# Legend:
# [1] = tested on: HSCs; assay: MTT cell viability assay, HSCs; format: cell-based; conditions: 72 h, mean ± SD of three experiments
# Experimental: (§1) Cell viability was evaluated using an MTT assay. HSCs, HepG2, Bel-7402, and L02 cells were seeded, respectively, in 96-well plates at a density of 3 × 10^3 cells per-well and stabilized at 37 °C for 24 h in a humidified atmosphere with 5% CO2. The growing cells were exposed to various concentrations of the tested drugs and incubated for 72 h (37 °C, 5% CO2). The MTT solution (20 μL, 5 mg/mL) was added to each well and incubated for 4 h. After removing the media, formazan crystals were dissolved with DMSO (150 μL). After shaking for 10 min, the absorbance was quantified at 490 nm. Wells containing no drugs were used as blanks. The IC50 values were defined as the concentration of compounds that produced a 50% reduction of surviving cells and were calculated using the Logit-method. The inhibitory rate was calculated in the following Equation (1): Inhibition rate (%) = (1 − OD Sample group/OD Control group) × 100%(1)
# [2] = tested on: HepG2; assay: MTT cell viability assay, HepG2; format: cell-based; conditions: Homo sapiens, 72 h, mean ± SD of three experiments
# Experimental: as §1
# [3] = tested on: Bel-7402; assay: MTT cell viability assay, Bel-7402; format: cell-based; conditions: Homo sapiens, 72 h, mean ± SD of three experiments
# Experimental: as §1
# [4] = tested on: L02; assay: MTT cell viability assay, L02 normal liver cell; format: cell-based; conditions: Homo sapiens, 72 h, mean ± SD of three experiments
# Experimental: as §1
# [5] = tested on: HSCs; assay: Annexin V-FITC/PI staining apoptosis assay (flow cytometry); format: cell-based; conditions: 72 h, control cells 15.1%
# Experimental: HSCs cells in logarithmic growth phase were cultured in 6-well plates at a density of 3 × 10^4 cells/mL for 24 h at 37 °C in a humidified atmosphere with 5% CO2. HSCs cells were treated with 3g at various concentrations (0, 1.5, 3.0, and 6.0 µM) for 72 h. Then, cells were collected, washed with annexin-binding buffer, and stained with annexin V-FITC and PI for 15 min in the dark. After that, the samples were analyzed by flow cytometry (BD FACSCalibur, San Jose, CA, USA).
# [6] = tested on: HSCs; assay: Mitochondrial membrane potential assay (Rh123, flow cytometry); format: cell-based; conditions: 1.5, 3.0, 6.0 µM, 72 h
# Experimental: HSCs cells in logarithmic growth phase were seeded in 6-well culture plate at a density of 3 × 10^4 cells/mL for 24 h at 37 °C in incubator with 5% CO2. After treatment with different concentrations of 3g (0, 1.5, 3.0, and 6.0 μM) for 72 h, cells were collected and washed twice in cold PBS, then resuspended in 1 mL cell culture medium with Rh123 (10 μg/mL) and incubated for 30 min at 37 °C. After being washed twice with cold PBS, cells were immediately analyzed by the flow cytometer at 488 nm excitation wavelength.
# [7] = tested on: HSCs; assay: Intracellular free Ca2+ levels assay (Fluo-3AM, flow cytometry); format: cell-based; conditions: 1.5, 3.0, 6.0 µM, 72 h
# Experimental: HSCs cells in logarithmic growth phase were cultured in 6-well plates at a density of 3 × 10^4 cells/mL for 24 h at 37 °C in incubator with 5% CO2. After treatment with different concentrations of 3g (0, 1.5, 3.0, and 6.0 μM) for 72 h, cells were collected and washed twice with cold PBS, then resuspended in HBSS buffer with 10 μM Fluo-3AM and incubated for 30 min at 37 °C in the dark. Intracellular Ca^2+ levels were analyzed by the flow cytometer at 488 nm excitation wavelength.
# [8] = tested on: HSCs; assay: Giemsa staining and DAPI staining, morphological changes; format: cell-based; conditions: 1.5, 3.0, 6.0 µM, 72 h
# Experimental: HSCs cells in logarithmic growth phase were cultured in 6-well plates at a density of 3 × 10^4 cells/mL for 24 h at 37 °C in a humidified atmosphere with 5% CO2. Then, each group was treated with 3g at various concentrations (0, 1.5, 3.0, and 6.0 µM) for 72 h. The cell culture medium was discarded. Additionally, the cells were washed twice with PBS, kept in PBS/ethanol (1:1) for 2 min, and fixated in ethanol for 10 min. After removing the ethanol, the cells were stained with giemsa staining for 2 min and observed under inverted phase-contrast microscope at a magnification of 400×.
# HSCs cells in logarithmic growth phase were cultured in 6-well plates at a density of 3 × 10^4 cells/mL for 24 h at 37 °C in a humidified atmosphere with 5% CO2. Additionally, each group was treated with different concentrations of 3g (0, 1.5, 3.0, and 6.0 µM) for 72 h. Cell culture medium was discarded, and the cells were washed twice with PBS. The cells were fixed with 4% paraformaldehyde (pH 7.4) for 15 min and then washed twice with PBS. With an excitation wavelength of […], 4′,6-diamidino-2-phenylindole (DAPI) staining was then performed for 2 min, and nuclear fragments were observed using inverted phase-contrast microscope at a magnification of 400×.
# [9] = tested on: CCl4 acute liver injury mice model; assay: CCl4 acute liver injury mice model (HE staining, serum ALT and AST); format: in vivo; conditions: 20 mg/kg intragastric, 8 days, CCl4 i.p., 16 h after injury; for activity of ALT in serum / activity of AST in serum: vs model group
# Experimental: The twelve mice were randomly divided into the control group, model group, administration of OA group, and administration of 3g group. In the administration of OA and 3g group, the mice were fed with OA and 3g suspension with 0.5% CMC-Na at a dose of 20 mg/kg body weight. The control group and model group were intragastrically administered with equal volume of 0.5% CMC-Na; during administration for 8 days, the general activity, fur, and feces of mice were observed daily. After administration for 1 h on the 8th day, the other groups were intraperitoneally injected with 10mL/kg 0.2% of the carbon tetrachloride (CCl4) olive oil solution, while the control group was intraperitoneally injected with olive oil solution. After 16 h of injury, the serum was prepared by centrifugation at 3000 rpm by orbital blood. The ability of ALT and AST was measured according to the instructions of the assay kit. The liver tissues of each group were taken out and the morphological differences were observed. The large lobe of liver was taken for pathological examination with HE staining under an optical microscope (×100).
structure (smiles),measurement,setting,value
CC1(C)CCC2(C(=O)O)CCC3(C)C(=CCC4C5(C)CCC(OC(=O)CN)C(C)(C)C5CCC43C)C2C1 (centres unmarked) [3a],IC50,[1],13.6 ± 1.12 µM
same,IC50,[2],11.5 ± 0.95 µM
same,IC50,[3],12.1 ± 1.32 µM
same,IC50,[4],> 25 µM
CC(N)C(=O)OC1CCC2(C)C(CCC3(C)C2CC=C2C4CC(C)(C)CCC4(C(=O)O)CCC23C)C1(C)C (centres unmarked) [3b],IC50,[1],9.92 ± 1.05 µM
same,IC50,[2],12.2 ± 1.48 µM
same,IC50,[3],> 25 µM
same,IC50,[4],> 50 µM
CC1(C)CCC2(C(=O)O)CCC3(C)C(=CCC4C5(C)CCC(OC(=O)C6CCCN6)C(C)(C)C5CCC43C)C2C1 (centres unmarked) [3c],IC50,[1],15.6 ± 2.31 µM
same,IC50,[2],11.1 ± 0.63 µM
same,IC50,[3],10.5 ± 1.49 µM
same,IC50,[4],10.1 ± 0.56 µM
CC(C)CC(N)C(=O)OC1CCC2(C)C(CCC3(C)C2CC=C2C4CC(C)(C)CCC4(C(=O)O)CCC23C)C1(C)C (centres unmarked) [3d],IC50,[1],> 25 µM
same,IC50,[2],> 25 µM
same,IC50,[3],> 25 µM
same,IC50,[4],> 25 µM
CCC(C)C(N)C(=O)OC1CCC2(C)C(CCC3(C)C2CC=C2C4CC(C)(C)CCC4(C(=O)O)CCC23C)C1(C)C (centres unmarked) [3e],IC50,[1],24.5 ± 1.99 µM
same,IC50,[2],18 ± 1.78 µM
same,IC50,[3],18.7 ± 1.63 µM
same,IC50,[4],> 25 µM
CC(C)C(N)C(=O)OC1CCC2(C)C(CCC3(C)C2CC=C2C4CC(C)(C)CCC4(C(=O)O)CCC23C)C1(C)C (centres unmarked) [3f],IC50,[1],19.6 ± 3.2 µM
same,IC50,[2],18.6 ± 2.65 µM
same,IC50,[3],> 25 µM
same,IC50,[4],15.2 ± 1.2 µM
CC1(C)CCC2(C(=O)O)CCC3(C)C(=CCC4C5(C)CCC(OC(=O)C(N)CCCCN)C(C)(C)C5CCC43C)C2C1 (centres unmarked) [3g],IC50,[1],3.46 ± 1.16 µM
same,IC50,[2],3.67 ± 0.61 µM
same,IC50,[3],4.7 ± 0.75 µM
same,IC50,[4],12.3 ± 2.34 µM
same,percentage (Q2 + Q4) of apoptotic HSCs,[5]; 1.5 µM,29.4%
same,percentage (Q2 + Q4) of apoptotic HSCs,[5]; 3.0 µM,50.5%
same,percentage (Q2 + Q4) of apoptotic HSCs,[5]; 6.0 µM,76.5%
same,change of Rh123 mean fluorescent intensity (MFI) with concentration,[6],decreased with the administration of higher concentrations
same,change of intracellular-free Ca2+ fluorescence with concentration,[7],increased dramatically
same,"apoptotic morphological changes of HSCs, Giemsa staining",[8],"evident nuclear fragmentation, chromatin condensation, and margination in a dose-dependent manner"
same,"nuclear changes of HSCs, DAPI staining",[8],"nuclear condensation and fragmentation, as well as the formation of apoptotic bodies with irregular shape"
same,liver morphological observation by HE staining,[9],more pathological changes were relieved in balloon-like hepatocyte edema and interstitial inflammatory cell infiltration than in OA
same,activity of ALT in serum,[9],remarkably closer to control
same,activity of AST in serum,[9],remarkably closer to control
CC1(C)CCC2(C(=O)O)CCC3(C)C(=CCC4C5(C)CCC(OC(=O)C(N)Cc6ccccc6)C(C)(C)C5CCC43C)C2C1 (centres unmarked) [3h],IC50,[1],14.8 ± 0.8 µM
same,IC50,[2],11.5 ± 0.94 µM
same,IC50,[3],8.5 ± 1.65 µM
same,IC50,[4],> 50 µM
CNCC(=O)OC1CCC2(C)C(CCC3(C)C2CC=C2C4CC(C)(C)CCC4(C(=O)O)CCC23C)C1(C)C (centres unmarked) [3i],IC50,[1],7.3 ± 1.58 µM
same,IC50,[2],> 25 µM
same,IC50,[3],11.8 ± 0.83 µM
same,IC50,[4],> 50 µM
CC1(C)CCC2(C(=O)O)CCC3(C)C(=CCC4C5(C)CCC(OC(=O)C6CCC(=O)N6)C(C)(C)C5CCC43C)C2C1 (centres unmarked) [3j],IC50,[1],> 25 µM
same,IC50,[2],23.9 ± 2.65 µM
same,IC50,[3],> 25 µM
same,IC50,[4],> 50 µM
"CC1(C)CC[C@]2(C(=O)O)CC[C@]3(C)C(=CC[C@@H]4[C@@]5(C)CC[C@H](O)C(C)(C)[C@@H]5CC[C@]43C)[C@@H]2C1 [OA, 3β-hydroxyolean-12-en-28-oic acid, reference compound]",IC50,[1],> 50 µM
same,IC50,[2],> 50 µM
same,IC50,[3],> 50 µM
same,IC50,[4],> 50 µM
same,activity of ALT in serum,[9],reduced to some extent
same,activity of AST in serum,[9],reduced to some extent
